Test results reported in patent publication US20180161314A1, “Methods for Treating Hyperuricemia and Related Diseases” (Ardea Biosciences, Inc., priority 2010, published 2018).

Columns and labels:
healthy adult subjects = test: Drug 1 / febuxostat cross-over interaction study in healthy adult subjects (Examples 10-12); type: in vivo, human; conditions: for % serum uric acid change, Mean: drug 1 200 mg qd, febuxostat 40 mg qd
From the text: Study Objectives • To compare the multiple-dose pharmacokinetics of febuxostat in the absence versus presence of drug 1 co-administration. • To compare the multiple-dose pharmacokinetics of drug 1 in the absence versus presence of febuxostat co-administration. • To measure the effects of drug 1 and febuxostat, both alone and in combination, on serum uric acid concentrations and amounts of urate excreted into urine. • To evaluate the safety and tolerability of multiple-doses of drug 1 and febuxostat, both alone or in combination.
The study is a two or three-panel, placebo-controlled (for drug 1), double-blinded (for drug 1 and matched placebo), randomized, cross-over study with up to 54 healthy adult subjects. Each panel consisting of 18 subjects is sequentially enrolled, starting with Panel 1 (200 mg once daily dose of drug 1 or placebo), followed by Panel 2 (400 mg once daily dose of drug 1 or placebo), and followed by optional Panel 3 (100 mg to 600 mg once daily dose of drug 1 or placebo). The placebo control is included in this study to better assess safety and tolerability and the serum urate lowering effect of drug 1 in combination with febuxostat. Serum urate levels may be influenced by frequent blood draws and meal contents; therefore, the true effect on serum urate levels can be determined by correcting for placebo (subtract serum urate effect in placebo subjects from serum urate effect in active subjects).
Subjects in each panel are randomly assigned to one of two treatment sequences (Sequence A or B) after all Baseline (Day −1) procedures have been completed. Each treatment sequence within a panel consists of 9 subjects randomly assigned to receive drug 1 (6 of 9 subjects) or matching placebo (3 of 9 subjects) in a double-blinded fashion. For each treatment sequence, single-agent drug treatment is administered on Days 1 to 7 (either open-label febuxostat or double-blinded drug 1 or matched placebo by random assignment), followed by combination treatment on Days 8 to 14, and completing with the alternative single-agent drug treatment on Days 15 to 21, as follows (Panel 1 shown in FIG. 2):
Sequence A: Days 1-7: Febuxostat, 40 mg (once daily) • Days 8 to 14: drug 1, 200 mg or placebo in combination with febuxostat (once daily) • Days 15-21: drug 1, 200 mg, or placebo (once daily) Sequence B: Days 1-7: drug 1, 200 mg, or placebo (once daily) • Days 8 to 14: drug 1, 200 mg or placebo in combination with febuxostat (once daily) • Days 15-21: Febuxostat, 40 mg (once daily) […]
Serial blood samples for PK and PD assessments are collected up to 24 hours after dosing on Days 7, 14, and 21. Urine (total catch) for assays of drug 1, creatinine, and uric acid are collected starting on Day −1 (pre-treatment baseline) and after dosing on Days 7, 14, and 21. Final safety assessments are completed when subjects return to the clinic at 7±1 days after discharge from the clinic on Day 22 (Follow-Up visit on Day 29). The total volume of blood collected from each subject is approximately 518 mL.
Screening procedures to determine subject eligibility are performed 28 days before the first dose of study drug (Day 1). A total of up to 54 subjects enrolled in up to 3 panels consisting of 2 sequences each, with 9 subjects per sequence (18 subjects per panel). Subjects withdrawing after dosing are not replaced.
Subjects in Panel 1 receive a 200 mg dose of drug 1 or placebo once daily for 14 days and a 40 mg dose of febuxostat once daily for 14 days. Subjects in Panel 2 receive a 400 mg dose of drug 1 or placebo once daily for 14 days and a 40 mg dose of febuxostat once daily for 14 days. Subjects in Panel 3 receive a 100-600 mg dose of drug 1 or placebo once daily for 14 days and a 40 mg dose of febuxostat once daily for 14 days.
Subjects in Sequence A begin dosing on Day 1 with febuxostat and take their first dose of drug 1 or placebo on Day 8. […]

[1] = in clinical studies; cited from earlier work
URAT1 = biological target: T1, URAT1 (Homo sapiens, UniProt Q96S37); conditions: in vitro; cited from earlier work
T1 sequence (Q96S37 1-553): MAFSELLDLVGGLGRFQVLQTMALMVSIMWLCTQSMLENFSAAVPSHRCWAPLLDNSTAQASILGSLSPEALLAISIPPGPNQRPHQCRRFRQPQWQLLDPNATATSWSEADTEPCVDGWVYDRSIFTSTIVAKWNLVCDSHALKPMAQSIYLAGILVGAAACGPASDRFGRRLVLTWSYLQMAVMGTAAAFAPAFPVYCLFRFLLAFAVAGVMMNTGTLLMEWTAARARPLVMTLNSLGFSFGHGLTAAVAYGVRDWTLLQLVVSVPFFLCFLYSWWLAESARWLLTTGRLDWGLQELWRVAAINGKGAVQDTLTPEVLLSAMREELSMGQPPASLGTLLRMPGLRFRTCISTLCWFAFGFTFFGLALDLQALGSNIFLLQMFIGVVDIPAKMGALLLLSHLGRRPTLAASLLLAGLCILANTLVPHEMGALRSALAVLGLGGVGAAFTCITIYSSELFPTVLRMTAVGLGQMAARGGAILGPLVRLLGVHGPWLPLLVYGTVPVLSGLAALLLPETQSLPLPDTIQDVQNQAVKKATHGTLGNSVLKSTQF

[2] = Week 1, Drug 1 200 mg alone, febuxostat 40 mg alone
[3] = Week 3, Drug 1 200 mg alone, febuxostat 40 mg alone

SMILES: O=C(O)CSc1nnc(Br)n1-c1ccc(C2CC2)c2ccccc12 [Drug 1, Sodium 2-(5-bromo-4-(4-cyclopropylnaphthalen-1-yl)-4H-1,2,4-triazol-3-ylthio)acetate]
- serum uric acid change from baseline, daily (healthy adult subjects; Day 1, Drug 1 200 mg, FBX 40 mg): −7.4%
- serum uric acid change from baseline, daily (healthy adult subjects; Day 1, Drug 1 400 mg): −5.5%
- % serum uric acid change, Mean (healthy adult subjects; Day 1): −14.8%
- serum uric acid change from baseline, daily (healthy adult subjects; Day 2, Drug 1 200 mg, FBX 40 mg): −22.3%
- serum uric acid change from baseline, daily (healthy adult subjects; Day 2, Drug 1 400 mg): −28.9%
- % serum uric acid change, Mean (healthy adult subjects; Day 2): −26.3%
- serum uric acid change from baseline, daily (healthy adult subjects; Day 3, Drug 1 200 mg, FBX 40 mg): −32.4%
- serum uric acid change from baseline, daily (healthy adult subjects; Day 3, Drug 1 400 mg): −33.3%
- % serum uric acid change, Mean (healthy adult subjects; Day 3): −34.7%
- serum uric acid change from baseline, daily (healthy adult subjects; Day 4, Drug 1 200 mg, FBX 40 mg): −37.7%
- serum uric acid change from baseline, daily (healthy adult subjects; Day 4, Drug 1 400 mg): −36.2%
- % serum uric acid change, Mean (healthy adult subjects; Day 4): −31.6%
- serum uric acid change from baseline, daily (healthy adult subjects; Day 5, Drug 1 200 mg, FBX 40 mg): −36%
- serum uric acid change from baseline, daily (healthy adult subjects; Day 5, Drug 1 400 mg): −37.3%
- % serum uric acid change, Mean (healthy adult subjects; Day 5): −31.3%
- serum uric acid change from baseline, daily (healthy adult subjects; Day 6, Drug 1 200 mg, FBX 40 mg): −39.1%
- serum uric acid change from baseline, daily (healthy adult subjects; Day 6, Drug 1 400 mg): −45.6%
- % serum uric acid change, Mean (healthy adult subjects; Day 6): −36.2%
- serum uric acid change from baseline, daily (healthy adult subjects; Day 7, Drug 1 200 mg, FBX 40 mg): −41.2%
- serum uric acid change from baseline, daily (healthy adult subjects; Day 7, Drug 1 400 mg): −48.8%
- % serum uric acid change, Mean (healthy adult subjects; Day 7): −40.7%
- serum uric acid change from baseline, daily (healthy adult subjects; Day 8, Drug 1 200 mg, FBX 40 mg, alone or combined as labelled): −38.9%
- serum uric acid change from baseline, daily (healthy adult subjects; Day 8, Drug 1 400 mg, alone or + FBX 40 mg as labelled): −42.5%
- % serum uric acid change, Mean (healthy adult subjects; Day 8): −37.6%
- serum uric acid change from baseline, daily (healthy adult subjects; Day 15, Drug 1 200 mg, FBX 40 mg, alone or combined as labelled): −54.8%
- serum uric acid change from baseline, daily (healthy adult subjects; Day 15, Drug 1 400 mg, alone or + FBX 40 mg as labelled): −68.1%
- serum uric acid change from baseline, daily (healthy adult subjects; Day 16, Drug 1 200 mg alone (week 3), FBX 40 mg alone): −42.5%
- serum uric acid change from baseline, daily (healthy adult subjects; Day 16, Drug 1 400 mg alone (week 3)): −53.4%
- serum uric acid change from baseline, daily (healthy adult subjects; Day 17, Drug 1 200 mg alone (week 3), FBX 40 mg alone): −37.5%
- serum uric acid change from baseline, daily (healthy adult subjects; Day 17, Drug 1 400 mg alone (week 3)): −44.8%
- serum uric acid change from baseline, daily (healthy adult subjects; Day 18, Drug 1 200 mg alone (week 3), FBX 40 mg alone): −32.8%
- serum uric acid change from baseline, daily (healthy adult subjects; Day 18, Drug 1 400 mg alone (week 3)): −40.7%
- serum uric acid change from baseline, daily (healthy adult subjects; Day 19, Drug 1 200 mg alone (week 3), FBX 40 mg alone): −25.9%
- serum uric acid change from baseline, daily (healthy adult subjects; Day 19, Drug 1 400 mg alone (week 3)): −33.8%
- serum uric acid change from baseline, daily (healthy adult subjects; Day 20, Drug 1 200 mg alone (week 3), FBX 40 mg alone): −33%
- serum uric acid change from baseline, daily (healthy adult subjects; Day 20, Drug 1 400 mg alone (week 3)): −40%
- serum uric acid change from baseline, daily (healthy adult subjects; Day 21, Drug 1 200 mg alone (week 3), FBX 40 mg alone): −32.4%
- serum uric acid change from baseline, daily (healthy adult subjects; Day 21, Drug 1 400 mg alone (week 3)): −46.4%
- serum uric acid change from baseline, daily (healthy adult subjects; Day 22, Drug 1 200 mg alone (week 3), FBX 40 mg alone): −32.8%
- serum uric acid change from baseline, daily (healthy adult subjects; Day 22, Drug 1 400 mg alone (week 3)): −41.3%
- Absolute sUA reduction from baseline, Intraday peak (healthy adult subjects; [2]): -3.1 mg/dL
- Absolute sUA reduction from baseline, Trough (healthy adult subjects; [2]): -2.4 mg/dL
- Percent sUA reduction from baseline, Intraday peak (healthy adult subjects; [2]): −50.4%
- Percent sUA reduction from baseline, Trough (healthy adult subjects; [2]): −39.7%
- Absolute sUA reduction from baseline, Intraday peak (healthy adult subjects; Week 1, Drug 1 400 mg alone): -4.2 mg/dL
- Absolute sUA reduction from baseline, Trough (healthy adult subjects; Week 1, Drug 1 400 mg alone): -3.4 mg/dL
- Percent sUA reduction from baseline, Intraday peak (healthy adult subjects; Week 1, Drug 1 400 mg alone): −60.7%
- Percent sUA reduction from baseline, Trough (healthy adult subjects; Week 1, Drug 1 400 mg alone): −48.5%
- Absolute sUA reduction from baseline, Intraday peak (healthy adult subjects; [3]): -2.8 mg/dL
- Absolute sUA reduction from baseline, Trough (healthy adult subjects; [3]): -2.0 mg/dL
- Percent sUA reduction from baseline, Intraday peak (healthy adult subjects; [3]): −48.5%
- Percent sUA reduction from baseline, Trough (healthy adult subjects; [3]): −34.7%
- Absolute sUA reduction from baseline, Intraday peak (healthy adult subjects; Week 3, Drug 1 400 mg alone): -3.6 mg/dL
- Absolute sUA reduction from baseline, Trough (healthy adult subjects; Week 3, Drug 1 400 mg alone): -2.9 mg/dL
- Percent sUA reduction from baseline, Intraday peak (healthy adult subjects; Week 3, Drug 1 400 mg alone): −56.9%
- Percent sUA reduction from baseline, Trough (healthy adult subjects; Week 3, Drug 1 400 mg alone): −45.5%
- Route of excretion [1]: preferentially excreted through the kidney, reaching high concentrations in urine
- Effect on the URAT1-mediated uptake of uric acid (URAT1): concentration-dependent inhibitory effect
